Test results: PubChem BioAssay AID328 (DTP/NCI, 2004)
Several values for one entry are separate records, joined by “and”; a condition that tells them apart may be missing. Equal entries are not always repeated. Inconclusive results and toxic doses are left out. Rule for the calls: active = survival T/C of 150% or more; inactive = T/C below 125% in these data.

System: BDF1 mice, P388 leukemia ip, median survival T/C
Experiment: NCI In Vivo Anticancer Drug Screen. Data for tumor model P388 Leukemia (intraperitoneal) in B6D2F1 (BDF1) mice
Settings: endpoint: median survival time, higher = longer survival
Summary of the method: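 Transplantable tumour in mice; compound vs vehicle dosing; survival scored; ratio of treated to control reported.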

[1] = dose: 50.0 mg/kg/injection, schedule: Q01DX009 (ip), vehicle: saline with Tween-80
[2] = dose: 100.0 mg/kg/injection, schedule: Q01DX009 (ip), vehicle: saline with Tween-80
[3] = dose: 200.0 mg/kg/injection, schedule: Q01DX009 (ip), vehicle: saline with Tween-80
[4] = dose: 200.0 mg/kg/injection, schedule: Q04DX003 (ip), vehicle: Klucel (hydroxypropylcellulose) (HPC)
[5] = dose: 100.0 mg/kg/injection, schedule: Q04DX003 (ip), vehicle: saline with Tween-80
[6] = dose: 200.0 mg/kg/injection, schedule: Q04DX003 (ip), vehicle: saline with Tween-80
[7] = dose: 400.0 mg/kg/injection, schedule: Q04DX003 (ip), vehicle: saline with Tween-80

Measured: T/C

CC(O)(c1ccc(Cl)cc1)C(c1ccccc1)c1ccccn1 (stereo not drawn)
inactive: dose: 25.0 mg/kg/injection, schedule: Q01DX009 (ip), vehicle: water 101 % of control | dose: 50.0 mg/kg/injection, schedule: Q01DX009 (ip), vehicle: water 109 % of control | dose: 100.0 mg/kg/injection, schedule: Q01DX009 (ip), vehicle: water 86 % of control | dose: 200.0 mg/kg/injection, schedule: Q01DX009 (ip), vehicle: water 109 % of control | dose: 400.0 mg/kg/injection, schedule: Q01DX009 (ip), vehicle: water 99 % of control

CN=C(N)c1ccc(N=C(N)c2ccc(N=C(N)c3ccc(C(N)=NC)cc3)cc2)cc1
inactive: dose: 10.0 mg/kg/injection, schedule: Q04DX003 (ip), vehicle: saline 104 % of control | dose: 20.0 mg/kg/injection, schedule: Q04DX003 (ip), vehicle: saline 104 % of control | dose: 40.0 mg/kg/injection, schedule: Q04DX003 (ip), vehicle: saline 116 % of control

CC(=O)CC(=O)c1ccccc1.CC(=O)CC(=O)c1ccccc1.CC(=O)CC(=O)c1ccccc1.[Co]
inactive: dose: 10.0 mg/kg/injection, schedule: Q01DX001 (ip), vehicle: Klucel (hydroxypropylcellulose) (HPC) 90 % of control | dose: 10.0 mg/kg/injection, schedule: Q04DX003 (ip), vehicle: Klucel (hydroxypropylcellulose) (HPC) 104 % of control | dose: 20.0 mg/kg/injection, schedule: Q01DX001 (ip), vehicle: Klucel (hydroxypropylcellulose) (HPC) 104 % of control | dose: 20.0 mg/kg/injection, schedule: Q04DX003 (ip), vehicle: Klucel (hydroxypropylcellulose) (HPC) 104 % of control | dose: 40.0 mg/kg/injection, schedule: Q01DX001 (ip), vehicle: Klucel (hydroxypropylcellulose) (HPC) 104 % of control | dose: 40.0 mg/kg/injection, schedule: Q04DX003 (ip), vehicle: Klucel (hydroxypropylcellulose) (HPC) 100 % of control

CC(C)(C)c1cc(C(C)(C)O)c2c(c1)C(C)(C)OS2(C)Cl (stereo not drawn)
inactive: dose: 12.5 mg/kg/injection, schedule: Q04DX003 (ip), vehicle: saline with Tween-80 100 % of control | dose: 25.0 mg/kg/injection, schedule: Q04DX003 (ip), vehicle: saline with Tween-80 100 % of control | dose: 50.0 mg/kg/injection, schedule: Q04DX003 (ip), vehicle: saline with Tween-80 96 % of control

CCOC(=O)C(OCc1ccccc1)(C(=O)Cl)C(C)C (stereo not drawn)
inactive: [1] 118 % of control

C1CCN[N-]C1.C1CCN[N-]C1.[Cl][Pt+2]([Cl])([Cl])[Cl]
inactive: dose: 0.78 mg/kg/injection, schedule: Q01DX009 (ip), vehicle: water 103 % of control | dose: 1.56 mg/kg/injection, schedule: Q01DX009 (ip), vehicle: water 112 % of control | dose: 3.12 mg/kg/injection, schedule: Q01DX009 (ip), vehicle: water 120 % of control | dose: 6.25 mg/kg/injection, schedule: Q01DX009 (ip), vehicle: water 106 % of control and 111 % of control | dose: 25.0 mg/kg/injection, schedule: Q04DX003 (ip), vehicle: water 104 % of control | dose: 50.0 mg/kg/injection, schedule: Q04DX003 (ip), vehicle: water 95 % of control

CSc1ccc(O)c(S)c1
inactive: [1] 118 % of control | [2] 122 % of control | [3] 124 % of control

CCC(=O)/C=C/c1ccccc1
inactive: [1] 93 % of control | [2] 109 % of control | [3] 118 % of control

N#CC1(c2ccc(Cl)cc2)CC1
inactive: dose: 100.0 mg/kg/injection, schedule: Q01DX009 (ip), vehicle: Klucel (hydroxypropylcellulose) (HPC) 95 % of control | dose: 100.0 mg/kg/injection, schedule: Q04DX003 (ip), vehicle: Klucel (hydroxypropylcellulose) (HPC) 92 % of control | dose: 200.0 mg/kg/injection, schedule: Q01DX009 (ip), vehicle: Klucel (hydroxypropylcellulose) (HPC) 100 % of control | [4] 100 % of control

Cc1nc([N+](=O)[O-])cn1CCC#N
inactive: [5] 98 % of control | [6] 99 % of control | [7] 86 % of control

CNC(=O)NNc1ccccc1
inactive: [4] 115 % of control | dose: 400.0 mg/kg/injection, schedule: Q04DX003 (ip), vehicle: Klucel (hydroxypropylcellulose) (HPC) 115 % of control

CCC[CH2][Hg][O]C(C)=O
inactive: dose: 3.13 mg/kg/injection, schedule: Q01DX009 (ip), vehicle: saline with Tween-80 115 % of control | dose: 3.13 mg/kg/injection, schedule: Q04DX003 (ip), vehicle: saline sonified 110 % of control | dose: 4.16 mg/kg/injection, schedule: Q01DX009 (ip), vehicle: saline 114 % of control | dose: 6.25 mg/kg/injection, schedule: Q01DX009 (ip), vehicle: saline 114 % of control | dose: 6.25 mg/kg/injection, schedule: Q04DX003 (ip), vehicle: saline sonified 120 % of control | dose: 8.25 mg/kg/injection, schedule: Q04DX003 (ip), vehicle: saline sonified 109 % of control | dose: 12.5 mg/kg/injection, schedule: Q01DX009 (ip), vehicle: saline with Tween-80 100 % of control | dose: 12.5 mg/kg/injection, schedule: Q04DX003 (ip), vehicle: saline sonified 118 % of control

OC(OCCCCCCOC(O)C(Cl)(Cl)Cl)C(Cl)(Cl)Cl (stereo not drawn)
inactive: [5] 95 % of control | [6] 95 % of control | [7] 90 % of control

CN(C)[C@@H]1C(=O)C(C(=O)NCNC(CO)(CO)CO)=C(O)[C@@]2(O)C(=O)C3=C(O)c4c(O)cccc4[C@@](C)(O)[C@H]3C[C@@H]12
inactive: dose: 25.0 mg/kg/injection, schedule: Q04DX003 (ip), vehicle: saline 100 % of control | dose: 50.0 mg/kg/injection, schedule: Q04DX003 (ip), vehicle: saline 95 % of control | dose: 100.0 mg/kg/injection, schedule: Q04DX003 (ip), vehicle: saline 90 % of control | dose: 200.0 mg/kg/injection, schedule: Q04DX003 (ip), vehicle: saline 104 % of control

O=C1OC2CC=CCC2CC1O (stereo not drawn)
inactive: dose: 12.5 mg/kg/injection, schedule: Q01DX009 (ip), vehicle: saline 92 % of control | dose: 25.0 mg/kg/injection, schedule: Q01DX009 (ip), vehicle: saline 96 % of control | dose: 50.0 mg/kg/injection, schedule: Q01DX009 (ip), vehicle: saline 102 % of control | dose: 100.0 mg/kg/injection, schedule: Q01DX009 (ip), vehicle: saline 102 % of control

O=C(Nc1ccc2c(c1)OCO2)O/N=C\c1ccccn1
inactive: [5] 118 % of control | [6] 95 % of control | [7] 100 % of control

ClCCN(CCCl)c1ccc(/C=C\c2ccnc3ccccc23)cc1
inactive: [2] 104 % of control | [3] 86 % of control
